Values after ≈ are worked out from the molar mass of the structure shown. Positions of bridges follow the written chain, without caps; N, C: chain ends. Non-standard residues stand in square brackets, D forms with d. Residues, ends and D or L forms follow the SMILES beside them. *: point of attachment. Decanoyl(3R-OH) = CCCCCCC[C@@H](O)CC(=O)*; dBip = N[C@H](Cc1ccc(-c2ccccc2)cc1)C(=O)O; dDab = NCC[C@@H](N)C(=O)O; Dab = NCC[C@H](N)C(=O)O; Dap = NC[C@H](N)C(=O)O
Columns and labels:
[1] = In vitro nephrotoxicity, GGT release from primary human kidney cells; assay type: cell-based; conditions: pH 7.4
Text: (§1) hPT cells were derived from whole human kidneys procured by the International Institute for the Advancement of Medicine (Edison, N.J., USA). All tissue was scored by a pathologist as normal (i.e., derived from non-cancerous, non-diseased tissue). Cell isolation procedures were based on those originally described by Todd et al. (1996) and modified (Cummings and Lash, 2000; Cummings et al., 2000) with use of sterile conditions (i.e., all instruments and glassware were autoclaved and all buffers were filtered through a 0.2-μm pore-size filter). Renal cortex and outer stripe were cut into slices, washed with sterile PBS, minced, and the pieces were placed in a trypsinization flask filled with 300 ml of sterile, filtered Hanks' buffer, containing 25 mM NaHCO3, 25 mM HEPES, pH 7.4, 0.5 mM EGTA, 0.2% (w/v) bovine serum albumin, 50 μg/ml gentamicin, 1.3 mg/mL collagenase, and 0.59 mg/ml CaCl2), which was filtered prior to use. Whole kidneys were perfused with Wisconsin medium and kept on ice until they arrived at the laboratory, which was usually within 24 h of removal from the donor.
(§2) All buffers were continuously bubbled with 95% O2/5% CO2 and were maintained at 37° C. Minced cortical pieces from whole kidneys were subjected to collagenase digestion for 60 min, after which the supernatant was filtered through a 70-μm mesh filter to remove tissue fragments, centrifuged at 150×g for 7 min, and the pellet resuspended in Dulbecco's Modified Eagle's Medium: Ham's F12 Medium (DMEM/F12; 1/1). Approximately 5 to 7×10^6 cells were obtained per 1 g of human kidney cortical tissue.
(§3) hPT cells were resuspended in 2 mL of DMEM/F12 and diluted to 500 mL with cell culture medium, which was serum-free and hormonally-defined. Composition of this supplemented medium was based on earlier work establishing optimal conditions for primary culture of rat PT cells (Lash et al., 1995). Basal medium was a 1:1 mixture of DMEM/F12. […] Cells were seeded in a volume of 0.5 ml at a density of 50-100 μg protein per cm^2 (0.5-1.0×10^6 cells/ml) on 24-well plates. Cultures were grown at 37° C. in a humidified incubator under an atmosphere of 95% air/5% CO2 at pH 7.4. Cultures were grown to approximately 80%-90% confluence (generally 5-6 days) prior to experiments. Cells were harvested by either scraping the flasks with a Teflon scraper or by brief incubation with Cellstripper (Cellgro, Herndon, Va., USA) (in Ca^2+- and Mg^2+-free Hanks' buffer).
Release of gamm-glutanyltransferase was assessed according to Orlowski, M., Meister, A. 1963. γ-Glutamyl-p-nitroanilide: A new convenient substrate for determination and study of L- and D-γ-glutamyltranspeptidase activities (Biochim. Biophys. Acta 73: 679-681.)
A 2.5 mM substrate Solution was prepared from 67 mg γ-glutamyl-p-nitroanilide+264 mg glycylglycine in 100 mL of 0.05 M Tris, pH 8.2 (50 mM Tris, pH 8.2: 605 mg Tris/HCl per 100 mL).
For the assay in 96-well plates, 6-μL of sample and 0.3 mL substrate solution were added to each well. The absorbance was measured at 410 nm for the appearance of product, p-nitroanilide (molar extinction=8800 M^−1 cm^−1).

in vitro = conditions: human
Outline: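 Fluorescence read-out (excitation 560, emission 590) after a 2 h, 37 °C incubation with 5 μM resazurin, following 24 h compound treatment of cells plated at 4000 per well. CC50 values come from fitting dose–response curves of growth inhibition.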

[2] = system: S. aureus ATCC 25923, MSSA; conditions: ATCC 25923
Outline: (§4)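 Mid-log cultures grown in Mueller Hinton broth at 37° C were tested by 2-fold broth microdilution at 5×10^5 CFU/mL final. Compounds were dissolved in water and tested over a final range of 32 to 0.015 μg/mL.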

E. coli ATCC 25922 = conditions: ATCC 25922
Outline: as §4

[3] = system: K. pneumoniae GN_102 PmxR; conditions: GN 102 PmxR
Outline: as §4

[4] = system: K. pneumoniae ATCC BAA-2146, NDM-1 pos; conditions: ATCC BAA-2146
Outline: as §4

P. aeruginosa ATCC 27853 = conditions: ATCC 27853
Outline: as §4

[5] = system: K. pneumoniae ATCC 700603, MDR; conditions: ATCC 700603
Outline: as §4

[6] = system: P. aeruginosa GN_105, PmxR; conditions: GN 105, PmxR
Outline: as §4

[7] = system: K. pneumoniae GN_106, PmxR; conditions: GN 106, PmxR
Outline: as §4

[8] = system: P. aeruginosa GN_043, PmxR; conditions: polymyxin-resistant
Outline: as §4

K. pneumoniae ATCC 13883 = conditions: ATCC 13883
Outline: as §4

A. baumannii GN_093 PmxR = conditions: GN 093 PmxR
Outline: as §4

A. baumannii ATCC 19606 = conditions: ATCC 19606
Outline: as §4

[9] = In vitro nephrotoxicity, LDH release from primary human kidney cells; assay type: cell-based; conditions: pH 7.4
Text: as §1, §2, §3

CCCCCCC[C@@H](O)CC(=O)N[C@H](CCN)C(=O)N[C@H]1CCNC(=O)[C@H](CC(C)C)NC(=O)[C@H](CCN)NC(=O)[C@H](CN)NC(=O)[C@H](CC(C)C)NC(=O)[C@@H](Cc2ccccc2)NC(=O)[C@H](CCN)NC1=O [compound 990, 3(R)OH-nC9CO-D-Dab-cyc[L-Dab-L-Dab-D-Phe-L-Leu-L-Dap-L-Dab-L-Leu]] ({Decanoyl(3R-OH)}-[dDab][Dab][Dab][dF]L[Dap][Dab]L; lactam 2-C)
CC50 [1]: > 128 µg/mL
CC50 at 24 h (in vitro): > 300 µM
MIC, S. Aureus ATCC 25923, MSSA [2]: 32 µg/mL (≈ 31.1 µM)
MIC, E. coli ATCC 25922 (E. coli ATCC 25922): 4 µg/mL (≈ 3.88 µM)
MIC, K. pneumoniae Cl Koprana 10065 0661:1, PmxR [3]: 4 µg/mL (≈ 3.88 µM)
MIC, K. pneumoniae ATCC BAA-2146, NDM-1 pos [4]: 4 µg/mL (≈ 3.88 µM)
MIC, P. aeruginosa ATCC 27853 (P. aeruginosa ATCC 27853): 2 µg/mL (≈ 1.94 µM)
MIC, K. pneumoniae ATCC 700603, MDR [5]: 4 µg/mL (≈ 3.88 µM)
MIC, P. aeruginosa PA9704, PmxR [6]: 4 µg/mL (≈ 3.88 µM)
MIC, K. pneumoniae Cl 138-16347-20362, PmxR [7]: 4 µg/mL (≈ 3.88 µM)
MIC, P. aeruginosa FADDI-PA070, PmxR ([8]; Table 5): 2 µg/mL (≈ 1.94 µM)
MIC, K. pneumoniae ATCC 13883 (K. pneumoniae ATCC 13883): 4 µg/mL (≈ 3.88 µM)
MIC, A. baumannii Cl Ptyela 10073 4512:2, PmxR (A. baumannii GN_093 PmxR): 16 µg/mL (≈ 15.5 µM)
MIC, A. baumannii ATCC 19606 (A. baumannii ATCC 19606): 8 µg/mL (≈ 7.76 µM)
CC50 [9]: 87 µg/mL (≈ 84.4 µM)

CCCCCCC[C@@H](O)CC(=O)N[C@H](CCN)C(=O)N[C@H]1CCNC(=O)[C@H](CC(C)C)NC(=O)[C@H](CN)NC(=O)[C@H](CCN)NC(=O)[C@H](CC(C)C)NC(=O)[C@@H](Cc2ccc(-c3ccccc3)cc2)NC(=O)[C@H](CCN)NC1=O [compound 5383, 3(R)OH-nC9CO-D-Dab-cyc[L-Dab-L-Dab-D-Bip-L-Leu-L-Dab-L-Dap-L-Leu]] ({Decanoyl(3R-OH)}-[dDab][Dab][Dab][dBip]L[Dab][Dap]L; lactam 2-C)
CC50 [1]: > 128 µg/mL
MIC S. aureus ATCC 25923, MSSA [2]: 2 µg/mL (≈ 1.81 µM)
MIC E. coli ATCC 25922 (E. coli ATCC 25922): 4 µg/mL (≈ 3.62 µM)
MIC K. pneumoniae GN_102 PmxR [3]: 8 µg/mL (≈ 7.23 µM)
MIC K. pneumoniae ATCC BAA-2146, NDM-1 pos [4]: 4 µg/mL (≈ 3.62 µM)
MIC P. aeruginosa ATCC 27853 (P. aeruginosa ATCC 27853): 2 µg/mL (≈ 1.81 µM)
MIC K. pneumoniae ATCC 700603, MDR [5]: 4 µg/mL (≈ 3.62 µM)
MIC P. aeruginosa GN_105, PmxR [6]: 2 µg/mL (≈ 1.81 µM)
MIC K. pneumoniae GN_106, PmxR [7]: 8 µg/mL (≈ 7.23 µM)
MIC P. aeruginosa GN_043, PmxR [8]: 2 µg/mL (≈ 1.81 µM)
MIC K. pneumoniae ATCC 13883 (K. pneumoniae ATCC 13883): 4 µg/mL (≈ 3.62 µM)
MIC A. baumannii GN_093 PmxR (A. baumannii GN_093 PmxR): 4 µg/mL (≈ 3.62 µM)
MIC A. baumannii ATCC 19606 (A. baumannii ATCC 19606): 4 µg/mL (≈ 3.62 µM)
CC50 [9]: > 128 µg/mL

— US11279733B2, “Peptide antibiotics” (priority 2017, dated 2022)
